{"source": "paper PMC11044139", "about": "“Comparative Study of Toxic Terpenoidal Aldehydes and Lactone Derivatives from the European Polypore Bondarzewia mesenterica” (ACS Omega, 2024)", "assay_type_in_all_cases": "cell-based", "key": {"[1]": {"tested_on": "Chromobacterium violaceum (DSM 30191)", "experiment": "Antimicrobial assay (MIC), C. violaceum", "conditions": "overnight incubation, n.i. = no inhibition up to 67 μg/mL", "protocol": "(§1) The antimicrobial effects of the isolated compounds were determined using our established protocols.[19] Generally, an array of clinically relevant microorganisms consisting of bacteria, namely, S. aureus (DSM 346), A. baumanii (DSM 30008), B. subtilis (DSM 10), E. coli (DSM 1116), P. aeruginosa (PA14), C. violaceum (DSM 30191), and M. smegmatis (ATCC 700084), and fungi including M. hiemalis (DSM 2656), C. albicans (DSM 1665), R. glutinis (DSM 10134), S. pombe (DSM 70572), and P. anomala (DSM 6766), were used. […] The minimum inhibitory concentrations (MIC) were recorded after an overnight incubation as the lowest concentration under which no microbial growth was visualized. The microorganisms were obtained from the German Collection of Microorganisms and Cell Cultures (DSMZ, Braunschweig, Germany)."}, "[2]": {"tested_on": "P. anomala, M. hiemalis, and Rhodotorula glutinis", "experiment": "Antimicrobial assay (MIC), three fungi summarised in text", "conditions": "range over three fungi", "protocol": "as §1"}, "[3]": {"tested_on": "Bacillus subtilis (DSM 10)", "experiment": "Antimicrobial assay (MIC), B. subtilis", "conditions": "overnight incubation, n.i. = no inhibition up to 67 μg/mL", "protocol": "as §1"}, "all tested cell lines": {"tested_on": "all tested cell lines", "experiment": "Cytotoxicity (MTT) assay, all tested cell lines", "conditions": "tested cell lines", "text": "MTT (3-(4,5-dimethylthiayol-2-yl)-2,5-diphenyltetrazolium bromide)-based assay was used to determine in vitro cytotoxicity as previously reported.[24] The tested mammalian cell lines included mouse fibroblasts (L929), endocervical adenocarcinoma (KB3.1), human lung carcinoma (A549), breast adenocarcinoma (MCF-7), prostate carcinoma (PC-3), and epidermoid carcinoma cells (A431). Epothilone B was used as a positive control."}, "[4]": {"tested_on": "Acinetobacter baumanii (DSM 30008)", "experiment": "Antimicrobial assay (MIC), A. baumanii", "conditions": "overnight incubation, n.i. = no inhibition up to 67 μg/mL", "protocol": "as §1"}, "[5]": {"tested_on": "Mucor hiemalis (DSM 2656)", "experiment": "Antimicrobial assay (MIC), M. hiemalis", "conditions": "DSM2656, overnight incubation, n.i. = no inhibition up to 67 μg/mL, read-out: MIC", "protocol": "as §1"}, "[6]": {"tested_on": "Schizosaccharomyces pombe (DSM 70572)", "experiment": "Antimicrobial assay (MIC), S. pombe", "conditions": "overnight incubation, n.i. = no inhibition up to 67 μg/mL", "protocol": "as §1"}, "[7]": {"tested_on": "Pseudomonas aeruginosa (PA14)", "experiment": "Antimicrobial assay (MIC), P. aeruginosa", "conditions": "overnight incubation, n.i. = no inhibition up to 67 μg/mL", "protocol": "as §1"}, "[8]": {"tested_on": "Staphylococcus aureus (DSM 346)", "experiment": "Antimicrobial assay (MIC), S. aureus", "conditions": "overnight incubation, n.i. = no inhibition up to 67 μg/mL", "protocol": "as §1"}, "[9]": {"tested_on": "Escherichia coli (DSM 1116)", "experiment": "Antimicrobial assay (MIC), E. coli", "conditions": "overnight incubation, n.i. = no inhibition up to 67 μg/mL", "protocol": "as §1"}, "[10]": {"tested_on": "Mycobacterium smegmatis (ATCC 700084)", "experiment": "Antimicrobial assay (MIC), M. smegmatis", "conditions": "Mycobacterium smegmatis; overnight incubation; n.i. = no inhibition up to 67 μg/mL", "protocol": "as §1"}, "[11]": {"tested_on": "Pichia anomala (DSM 6766)", "experiment": "Antimicrobial assay (MIC), P. anomala", "conditions": "Hansenula anomala, DSM6766; Pichia anomala; overnight incubation; n.i. = no inhibition up to 67 μg/mL; read-out: MIC", "protocol": "as §1"}, "[12]": {"tested_on": "Rhodotorula glutinis (DSM 10134)", "experiment": "Antimicrobial assay (MIC), R. glutinis", "conditions": "DSM10134, overnight incubation, n.i. = no inhibition up to 67 μg/mL, read-out: MIC", "protocol": "as §1"}, "[13]": {"tested_on": "Candida albicans (DSM 1665)", "experiment": "Antimicrobial assay (MIC), C. albicans", "conditions": "overnight incubation, n.i. = no inhibition up to 67 μg/mL", "protocol": "as §1"}}}
{"smiles": "CC(C)=CCc1cc(C=O)ccc1O", "note": "[Compound 9, 4-hydroxy-3(3-methylbut-2-enyl)benzaldehyde]", "values": [{"measurement": "MIC", "setting": "[1]", "value": "n.i."}, {"measurement": "MIC values, range against P. anomala, M. hiemalis, and Rhodotorula glutinis", "setting": "[2]", "value": "33.3 to 66.6", "unit": "µg/mL"}, {"measurement": "MIC", "setting": "[3]", "value": "n.i."}, {"measurement": "cytotoxic effects (in words)", "setting": "all tested cell lines", "value": "no apparent cytotoxic effects"}, {"measurement": "MIC", "setting": "[4]", "value": "n.i."}, {"measurement": "MIC", "setting": "[5]", "value": 66.6, "unit": "µg/mL"}, {"measurement": "MIC", "setting": "[6]", "value": "n.i."}, {"measurement": "MIC", "setting": "[7]", "value": "n.i."}, {"measurement": "MIC", "setting": "[8]", "value": "n.i."}, {"measurement": "MIC", "setting": "[9]", "value": "n.i."}, {"measurement": "MIC", "setting": "[10]", "value": "n.i."}, {"measurement": "MIC", "setting": "[11]", "value": 33.3, "unit": "µg/mL"}, {"measurement": "MIC", "setting": "[12]", "value": 66.6, "unit": "µg/mL"}, {"measurement": "MIC", "setting": "[13]", "value": "n.i."}]}
